Holding throughout (type): biochemical
One assay addresses T1, ZAP-70 (Homo sapiens, UniProt P43403).
T1 sequence (P43403 1-619): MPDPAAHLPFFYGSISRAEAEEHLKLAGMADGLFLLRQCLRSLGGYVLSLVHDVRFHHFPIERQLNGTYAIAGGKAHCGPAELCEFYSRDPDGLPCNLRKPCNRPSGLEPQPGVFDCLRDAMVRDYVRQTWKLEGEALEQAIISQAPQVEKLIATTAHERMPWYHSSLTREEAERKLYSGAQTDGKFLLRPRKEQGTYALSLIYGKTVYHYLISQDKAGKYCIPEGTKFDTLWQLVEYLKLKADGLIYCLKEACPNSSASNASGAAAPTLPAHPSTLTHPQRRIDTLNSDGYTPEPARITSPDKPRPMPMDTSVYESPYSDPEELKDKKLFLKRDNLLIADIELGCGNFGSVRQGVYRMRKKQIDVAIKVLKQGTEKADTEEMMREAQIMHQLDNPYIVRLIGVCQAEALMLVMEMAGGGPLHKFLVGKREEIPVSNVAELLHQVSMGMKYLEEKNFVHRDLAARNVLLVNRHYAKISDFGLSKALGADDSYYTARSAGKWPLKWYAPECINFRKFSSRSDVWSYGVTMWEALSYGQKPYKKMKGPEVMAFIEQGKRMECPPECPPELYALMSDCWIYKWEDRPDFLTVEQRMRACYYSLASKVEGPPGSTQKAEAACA
Briefly: ZAP-70 kinase assay. The conditions noted are these: polyGlu-Tyr 17 μg/ml. On the procedure:
(§1) The tyrosine kinase activity of ZAP-70 was determined using a capture assay based on that employed above for p56^lck. The RR-src peptide was replaced with polyGlu-Tyr (Sigma; Poole, UK) at a final concentration of 17 μg/ml. After addition of the stopped reaction to the filtermat, trichloroacetic acid 10% (w/v) was employed as the wash reagent instead of acetic acid and a final wash in absolute ethanol was also performed before scintillation counting. IC50 values for each test inhibitor were determined as described above in the p56^lck assay.

For the next assay, the system named is protein kinase C (PKC). As to the kind of experiment: Protein kinase C assay. To be noted: for activity in the protein kinase C assay: in words. The method, then: Inhibitor activity against protein kinase C (PKC) was determined using PKC obtained from Sigma Chemical Company (Poole, UK) and a commercially available assay system (Amersham International plc, Little Chalfont, UK). Briefly, PKC catalyses the transfer of the γ-phosphate (^32 p) of ATP to the threonine group on a peptide specific for PKC. Phosphorylated peptide is bound to phosphocellulose paper, subsequently quantified by scintillation counting and IC50 values determined as before.

The next assay concerns remaining kinases. As to the kind of experiment: Selectivity over the remaining kinases described (p56^lck, p59^fyn, EGFr, ZAP-70, Csk, protein kinase C assays). On the procedure:
(§2) All assays were performed in 20 mM HEPES pH 7.5 containing 10 mM MgCl2, 10 mM MnCl2, 0.05% Brij, 1 μM ATP (0.5 μCi[γ-^33 P]ATP) and 0.8 mg/ml RR-src. […] After incubation at 30° C. for 15 min, the reaction was terminated by the addition of one-third volume of stop reagent (0.25 mM EDTA and 33 mM ATP in dH2 O). A 15 μl aliquot was removed, spotted onto a P-30 filtermat (Wallac, Milton Keynes, UK), and washed sequentially with 1% acetic acid and dH2 O to remove ATP. The bound ^33 P-RR-src was quantitated by scintillation counting of the filtermat in a Betaplate scintillation counter (Wallac, Milton Keynes, UK) after addition of Meltilex scintillant (Wallac, Milton Keynes, UK). The dpm obtained, being directly proportional to the amount of ^33 P-RR-src produced by p56^lck, were used to determine the IC50 for each compound.
IC50 values for each test inhibitor were determined as described previously in the p56^lck assay.
as §1
Inhibitor activity against protein kinase C (PKC) was determined using PKC obtained from Sigma Chemical Company (Poole, UK) and a commercially available assay system (Amersham International plc, Little Chalfont, UK). Briefly, PKC catalyses the transfer of the γ-phosphate (^32 p) of ATP to the threonine group on a peptide specific for PKC.
Phosphorylated peptide is bound to phosphocellulose paper, subsequently quantified by scintillation counting and IC50 values determined as before.

The next assay concerns the target human p56^lck (Homo sapiens, UniProt P06239). As to the kind of experiment: p56^lck kinase assay. The conditions noted are these: 1 μM ATP, RR-src, pH 7.5, 30° C., 15 min. The method, then:
The tyrosine kinase activity of p56^lck was determined using a RR-src peptide (RRLIEDNEYTARG) and [γ-^33 P]ATP as substrates. Quantitation of the ^33 P-phosphorylated peptide formed by the action of p56^lck was achieved using an adaption of the method of Geissler et al (J. Biol. Chem. (1990) 265, 22255-22261).
as §2

A further assay has as its system human p59^fyn. As to the kind of experiment: p59^fyn kinase assay. To be noted: in words. On the procedure: Compounds of the invention were assayed for p59^fyn inhibitory activity in a similar manner to the p56^lck assay, using human p59^fyn.
The mark [1] stands for this setting: relative to ZAP-70, remaining = other than ZAP-70 and protein kinase C.
Where [2] appears, read: relative to p56^lck, remaining = other than p56^lck and p59^fyn.
[3] abbreviates: relative to protein kinase C, remaining = other than protein kinase C.

Sequence of human p56^lck (P06239 whole entry): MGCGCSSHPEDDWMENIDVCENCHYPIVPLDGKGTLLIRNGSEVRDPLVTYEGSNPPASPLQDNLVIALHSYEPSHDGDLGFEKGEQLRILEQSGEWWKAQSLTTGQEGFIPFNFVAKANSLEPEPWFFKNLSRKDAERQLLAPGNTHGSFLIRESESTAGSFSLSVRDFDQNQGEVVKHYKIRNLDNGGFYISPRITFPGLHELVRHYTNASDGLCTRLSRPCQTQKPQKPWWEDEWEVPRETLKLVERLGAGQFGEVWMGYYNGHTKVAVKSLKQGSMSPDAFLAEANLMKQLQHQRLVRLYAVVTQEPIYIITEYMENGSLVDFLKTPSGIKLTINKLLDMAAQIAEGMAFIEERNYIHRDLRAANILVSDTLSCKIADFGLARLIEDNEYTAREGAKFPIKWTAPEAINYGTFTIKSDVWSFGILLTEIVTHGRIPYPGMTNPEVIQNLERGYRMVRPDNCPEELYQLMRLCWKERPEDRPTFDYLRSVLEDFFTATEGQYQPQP

A word on the IC50: it is the concentration at which inhibition is half-maximal. Lower therefore signals greater potency. Regarding `COc1cc(Nc2nccc(-c3ccc(NCCCN)nc3)n2)cc(OC)c1OC` [Example 66, 4-(2-(3-Aminopropylamino)pyridin-5-yl)-N-(3,4,5-trimethoxyphenyl)-2-pyrimidineamine], at ZAP-70, 68 nM corresponded to half-maximal inhibition (IC50). In addition, the “activity in the protein kinase C assay” value in the assay on protein kinase C (PKC) is “active”. For the same molecule, the “IC50 values at least 10× greater against the remaining kinases” value (“IC50 values … against the remaining kinases” below) with remaining kinases (setting [1]) is “at least 10 ×”.
As for `CCOC(=O)Cc1ccc(Nc2ccnc(Nc3cc(OC)c(OC)c(OC)c3)n2)cc1` [Example 103, N4-(4-(Ethoxycarbonylmethyl)phenyl)-N2-(3,4,5-trimethoxyphenyl)-2,4-pyrimidinediamine], on human p56^lck, the IC50 came to 40 nM. Besides, the “activity against p59^fyn” value in the assay on human p59^fyn was “active”. For the same molecule, the “IC50 values … against the remaining kinases” value in the assay with remaining kinases (setting [2]) is reported as “at least 10 ×”.
Consider `COc1cc(Nc2nccc(-c3ccc(NCCN)nc3)n2)cc(OC)c1OC` [Example 64, 4-(2-(2-Aminoethylamino)pyridin-5-yl)-N-(3,4,5-trimethoxyphenyl)-2-pyrimidineamine], for which, on ZAP-70, it took 124 nM to reach half-maximal inhibition (IC50). In addition, in the assay with protein kinase C (PKC), the “activity in the protein kinase C assay” value is “active”. Besides, the “IC50 values … against the remaining kinases” value with remaining kinases (setting [1]) was “at least 10 ×”.
Take `COc1cc(Nc2nccc(-c3cccc(OCCCN)c3)n2)cc(OC)c1OC.Cl.Cl` [Example 48, 4-(3-(3-Aminopropoxy)phenyl)-N-(3,4,5-trimethoxyphenyl)-2-pyrimidineamine dihydrochloride]: the concentration for half-maximal inhibition (IC50) on protein kinase C (PKC) was 22 nM. Also, in the assay with remaining kinases (setting [3]), the “IC50 values … against the remaining kinases” value was “at least 10 ×”.
Consider `COc1cc(Nc2nccc(-c3ccc(NCCC4CCCN4C)nc3)n2)cc(OC)c1OC` (stereo not shown) [Example 81, 4-(2-(2-(1-Methylpyrrolidin-2-yl)ethylamino)pyridin-5-yl)-N-(3,4,5-trimethoxyphenyl)-2-pyrimidineamine], for which the midpoint of inhibition against protein kinase C (PKC), the IC50, lay at 92 nM. Besides, the “IC50 values … against the remaining kinases” value in the assay with remaining kinases (setting [3]) is reported as “at least 10 ×”.
`COc1ccc(Nc2ccnc(Nc3cc(OC)c(OC)c(OC)c3)n2)cc1OC` [Example 96, N4-(3,4-Dimethoxyphenyl)-N2-(3,4,5-trimethoxyphenyl)-2,4-pyrimidinediamine]: it took 215 nM to reach half-maximal inhibition against human p56^lck (IC50). Further, the “activity against p59^fyn” value with human p59^fyn was “active”. Further, the “IC50 values … against the remaining kinases” value in the assay with remaining kinases (setting [2]) is given as “at least 10 ×”.

Values taken from US5958935A, “Substituted 2-anilinopyrimidines useful as protein kinase inhibitors” (Celltech Therapeutics Limited, priority 1995, dated 1999).
